The values that follow come from a melting point compilation (Tetko et al.; mined from patent text by program, amines drawn as free bases though some values may be those of a salt).

By melting point is commonly meant the temperature, or range, at which the solid turns liquid.

On to `CCN(CC)c1ccc(N(c2ccc(N(CC)CC)cc2)C2(c3ccc(N(CC)CC)cc3C)OC(=O)c3ccccc32)cc1` (centres undefined), for which the melting point lay in the range of 58 to 71 °C.

As to `COc1ccc(C=CC=O)cc1OCc1nc(-c2ccccc2)oc1C`, the melting point fell in the range of 136 to 137 °C.

As for `CN(C)C(=O)C(C1CCCCC1)n1ccc(-c2ccccc2)n1` (centres undefined), the melting point lay in the range of 87.5 to 90 °C.

`COC(=O)C(=C(C)C)N1C(=O)[C@H](N2C(=O)c3ccccc3C2=O)[C@H]1Cl` gave a melting point of 122 to 125 °C.

For the compound `O=C(O)C(CCc1ccc(Cl)cc1)(Cn1cncn1)c1ccccc1` (centres undefined), the melting point is 188 to 190 °C.

`Cc1cc(C)nc(NC(=O)NS(=O)(=O)Nc2nc(C)cc(C)n2)n1`: the melting point was found to be 198 °C.

Compound `CCCCCCCCCCCCCCCC(=O)NC(CCCCCCCCCCCCCCC)CC(=O)NCCC(=O)NC(Cc1ccccc1)C(=O)O` (centres undefined) came in with a melting point of 169 to 174 °C.

Compound `C#CCN(C(=O)c1ccccc1C(F)(F)F)S(=O)(=O)c1cccc(C)c1` displayed a melting point of 81 to 85 °C.

`CC1Oc2ccc(CN3CCN(c4nc5c(c(=O)n(C)c(=O)n5C)n4C)CC3)cc2NC1=O` (centres undefined) returned a melting point of 130 to 138 °C.

`Cc1ccc(Br)c(Cl)c1NS(=O)(=O)c1ccccc1C(=O)O` yielded a melting point of 238 to 242 °C.

Compound `CC(C)n1nc(OCC(=O)c2ccc(F)cc2)c(-c2ccc(F)cc2)c1-c1ccc(S(C)(=O)=O)cc1` yielded a melting point of 184 to 185 °C.

`CC(C)CCNc1nc2ccccc2cc1[N+](=O)[O-]` came in with a melting point of 99 to 100 °C.

`Cc1noc(NS(=O)(=O)c2ccccc2F)c1Br`: the melting point lay within 87 to 89 °C.

`CC(/C=C/C1=C(c2ccc3c(c2)C(C)(C)CCC3(C)C)CCCC1)=C\C(=O)O` showed a melting point of 198 to 199 °C.

With `CN(C)CCNC(=O)Cc1ccc(NC(=O)C2CCN(C(=O)OCc3ccccc3)CC2)cc1`, the melting point lay in the range of 169 to 170 °C.

With `CCCCc1c(C(=O)c2ccc(O)cc2)sc2ccc([N+](=O)[O-])cc12`, the melting point is 182 °C.

`CC1=CC(=Nc2nccs2)C(C)C(C)=C1O` (centres undefined) came in with a melting point of 95 to 96 °C.

As for `COc1ccc(C(O)(CN2CCNC2=O)c2ccccc2)cc1OC` (centres undefined), the melting point was determined as 154 °C.

The compound `COC(=O)c1ncn2c1CN(C)C(=O)c1ccccc1-2` displayed a melting point of 212 to 214 °C.

Compound `CCOC(=O)N1CCN(c2ccc(C3=NNC(=O)CC3C)cc2N)CC1` (centres undefined) gave a melting point of 193 to 195 °C.

With `Nc1cc(=O)nc(Nc2ccc(Cl)cc2)n1-c1ccccc1`, the melting point lay in the range of 233 to 237 °C.

`Cc1ccc2nc(SCC(=O)O)oc2c1` came in with a melting point of 144 to 146 °C.

With `Cc1ccc2c(NCc3ccc(NC(=O)c4ccc(Br)cc4)cc3)nc(Cl)nc2c1`, the melting point is 295 to 298 °C.

For `CN(C)CC#CC1=CC[N+]([O-])=C(c2ccccc2)c2cc(Cl)ccc21`, the melting point fell in the range of 121 to 123 °C.

The compound `CCOC(=O)C(C#N)Cc1cc(OC)c(OC)cc1C` (centres undefined) returned a melting point of 39 to 40 °C.

For the compound `Cc1nc(-c2cc(Cl)ccc2Cl)n2c1nnc1ccc(N3CCCCC3)cc12`, the melting point fell in the range of 158 to 160 °C.

`N#CCOc1ccc(O)c([N+](=O)[O-])c1` returned a melting point of 113 to 114 °C.

In the case of `CS(=O)(=O)c1ccc(-c2[nH]nc(C(=O)CCCO)c2-c2ccc(C#N)cc2)cc1`, the melting point fell in the range of 169 to 171 °C.

`Cc1ccc2nc(-c3ccccc3)c(-c3ccccc3)nc2c1` came in with a melting point of 114 to 116 °C.

Regarding `COc1cc(N)c(Cl)cc1C(=O)NCC1CCN(CCCCCN)CC1`, the melting point was 60 to 63 °C.

`COc1nc(CCc2cc(Br)ccc2OCc2ccccc2)ccc1C(=O)O` displayed a melting point of 141 to 143 °C.

`COC(=O)C[C@H](O)C[C@H](O)C=Cc1c(-c2ccc(F)cc2)c(-c2ccccc2)c(C(=O)Nc2cccc(S(N)(=O)=O)c2)n1C(C)C` showed a melting point of 85 to 87 °C.

In turn, `CC1CCc2c(Cl)c(N3CCOCC3)cc3c(=O)c(C(=O)O)cn1c23` (centres undefined) gave a melting point of 271 to 274 °C.

For the compound `N#Cc1cccc(NC(=O)CN2CCC(Cc3ccc(F)cc3)CC2)c1`, the melting point fell in the range of 101 to 103 °C.

In turn, `CC(=O)Nc1cc(OC(F)F)c(OC(F)F)cc1[N+](=O)[O-]` showed a melting point of 65 to 67 °C.

On to `COc1cc(OC)nc(Oc2ccc3c(c2C(=O)O)OCO3)n1`, for which the melting point was 198 to 201 °C.

Compound `CC(=O)C1=C(Nc2ccc(C3=NNC(=O)CC3)cc2)CC(C)(C)CC1=O` returned a melting point of 212 to 214 °C.

In turn, `COC(=O)c1ccc(-c2nn(Cc3ccccc3)c3ccc(N)cc23)o1` showed a melting point of 195 to 196 °C.

The compound `O=C(O)CCC(c1cc(F)ccc1F)S(=O)(=O)c1ccc(Cl)cc1` (centres undefined) gave a melting point of 157 to 158 °C.

`COc1cc2c(cc1OC)C(C)=[N+]([O-])C(c1ccco1)N2` (centres undefined) had a melting point of 191 to 195 °C.

The compound `CCCCCCCCS(=O)(=O)C(Cl)S(N)(=O)=O` (centres undefined) registered a melting point of 73 to 74 °C.

For `CCCCCCCCCCCCCCOCC(CI)(CI)COCCCCCCCCCCCCCC`, the melting point lay in the range of 27 to 28 °C.

Compound `OCC(CO)(Cc1ccccc1)Cc1ccccc1` yielded a melting point of 105 °C.

As to `CC(=O)S[C@@H]1CCO[C@@H](/C(C)=C/c2ccc(C(F)(F)F)cc2)O1` (relative stereo), the melting point lay in the range of 128 to 129 °C.

In the case of `Oc1cc2c(-c3ccc(Cl)cc3)csc2c(Cl)c1Cl`, the melting point was 174 to 176 °C.

`CC(=O)Oc1ccccc1-c1nn2cc(-c3ccccc3)nc2s1`: the melting point stood at 177 °C.

For `Cc1nc(-c2ccc(-c3ccco3)cc2)c(-c2ccc(S(C)(=O)=O)cc2)o1`, the melting point was in the range of 143 to 144 °C.

As for `COc1ccc2c(c1)OCCC(C(=O)O)=C2`, the melting point was in the range of 197 to 200 °C.

Compound `CC(C)[C@@H]1N(C(=O)OCc2ccccc2)CO[C@]1(O)C(F)(F)F` came in with a melting point of 73 to 74 °C.

Regarding `CC(C)(C)OC(=O)N1CCN(c2c(F)cc(N3CC(CO)OC3=O)cc2F)CC1` (centres undefined), the melting point was 164 to 166 °C.

The compound `CC(C)[C@H](S)C(=O)NC(C)(C)C(=O)N[C@@H](COCc1ccccc1)C(=O)O` displayed a melting point of 57 to 70 °C.

`CCOC(=O)COc1cc(Cl)c2c(=O)c(-c3ccc(OC)cc3)coc2c1` came in with a melting point of 121 to 122 °C.

In the case of `O=C(CS(=O)Cc1ccc(F)cc1)NO` (centres undefined), the melting point was in the range of 176 to 177 °C.

For `O=C(O)Cc1ccc(Oc2ccc(CC3SC(=O)NC3=O)cc2)cc1` (centres undefined), the melting point came out at 166 °C.

In turn, `Cc1ccc(Oc2ccccc2C(=N)NO)c(O)c1` had a melting point of 85 to 87 °C.

In turn, `O[C@H](COc1cccc2[nH]ccc12)CN1CCC(c2c[nH]c3c(Cl)cccc23)CC1` gave a melting point of 186 to 189 °C.

Regarding `CC(C)c1cc(C(C)C)c2sc3ccccc3c(=O)c2c1`, the melting point lay within 74 to 76 °C.

Compound `O=C1CC(c2ccccc2)CN1C(=O)c1ccc(Cl)cc1` (centres undefined) had a melting point of 157 to 158 °C.

`O=C(Nc1ccnc(C(=O)NO)c1)c1ccccc1` came in with a melting point of 175 to 184 °C.

Compound `COc1ccc(S(=O)(=O)Nc2ccccc2N)cc1` showed a melting point of 141 to 142 °C.

Compound `COC(=O)NC(=S)Nc1ccccc1NC(=O)CCl` yielded a melting point of 156 to 158 °C.

`O=C(NCc1ccc([N+](=O)[O-])cc1)N(c1ccccc1)c1ccccc1` gave a melting point of 137 to 138 °C.

`C#Cc1ccc(C#Cc2ccncc2)s1` gave a melting point of 134 to 136 °C.

With `CC(C)(C)C(NC(=O)c1ccc(Cl)cc1)NC(=NC#N)Nc1cccc(Cl)c1` (centres undefined), the melting point fell in the range of 158 to 160 °C.

On to `C=CC1OC(OC)C(OCc2ccccc2)C(OCc2ccccc2)C1OCc1ccccc1` (centres undefined), for which the melting point lay in the range of 46 to 47 °C.

In turn, `COc1ccc(CN2C(=O)C(C)(c3ccccc3Cl)c3cc(OC)ccc32)c(OC)c1` (centres undefined) showed a melting point of 133 °C.

In turn, `CCS(=O)(=O)NCc1cccc(-c2nc(=O)c3ccccc3s2)n1` showed a melting point of 170 to 171 °C.

Compound `CN(CCOc1ccc(Cn2cc(CCC(=O)O)c(-c3ccccc3)c2)cc1)c1ccccn1` gave a melting point of 110 to 111 °C.

Compound `COc1cc2c(cc1OC)C(C=Cc1ccc(Br)cc1)=NN=C(C)C2` gave a melting point of 156 to 158 °C.

`COc1ccc(C2Cc3ccccc3-c3nc(N)c4ccccc4c32)c(OC)c1OC` (centres undefined) had a melting point of 283 °C.

`CCCCCCCCCCCCCCn1ccc(C(=O)O)c1` came in with a melting point of 66 to 67 °C.

For the compound `COC(=O)c1ccc(OC)c(/C=C/C(=O)N(C(C)C)C(C)C)c1`, the melting point was in the range of 139 to 140 °C.

Compound `O=CC=C(c1cccc(F)c1)c1cccc(F)c1` returned a melting point of 51 to 53 °C.

As to `Clc1ccc(CCOc2ncnc3ncccc23)cc1`, the melting point lay within 126 to 128 °C.

In turn, `CCCCc1nn(-c2ccccc2C(F)(F)F)c(=O)n1Cc1ccc(-c2ccccc2S(=O)(=O)NC(=O)C(c2ccccc2)c2ccccc2)cc1` displayed a melting point of 144 to 146 °C.

Consider `Cn1nc(-c2ccccc2)c2cccc(NS(C)(=O)=O)c2c1=O`, for which the melting point lay within 217 to 218 °C.

Turning to `O=C1CC2=C(CCN1)c1ccccc1Sc1ccccc12`, the melting point is 195 to 198 °C.

In turn, `COc1cc(OC)nc(NC(=O)NS(=O)(=O)c2ccccc2Cc2nnc(SC)s2)n1` registered a melting point of 171 to 175 °C.

`OC1(c2ccccc2)c2ccccc2C2=NC3CCCCC3N21` (centres undefined): the melting point lay within 176 to 178 °C.

With `CCCOc1ccc(C(=O)C=CC(=O)O)cc1OC`, the melting point came out at 136 °C.

Compound `CC(=O)NC(=Cc1ccc(C#N)cc1)C(=O)N[C@H](C(=O)O)C1CCCCC1` gave a melting point of 196 to 198 °C.

For `O=c1cc(-c2nnn[nH]2)occ1-c1ccccc1`, the melting point is 237 to 238 °C.

`CC(Cc1ccc(C(=O)c2ccc(Cl)cc2)cc1)S(=O)(=O)C(F)(F)F` (centres undefined) came in with a melting point of 107 to 109 °C.

In the case of `CC(C)(C)OC(=O)NN=Cc1ccccc1`, the melting point is 184 to 186 °C.

Compound `Cc1cc(O)cc(C)c1Sc1ccccn1` came in with a melting point of 190 °C.

On to `NNc1ccnc2c(NC(=O)c3c(Cl)cccc3Cl)cc(C(F)(F)F)cc12`, for which the melting point was in the range of 228 to 232 °C.

In the case of `O=[N+]([O-])c1ccc(NC2CC2)cc1`, the melting point fell in the range of 126 to 128 °C.

`COc1cc2c(cc1F)C1(CO2)C(=O)N(CC2CCCCO2)c2ccccc21` (centres undefined) yielded a melting point of 131 to 133 °C.

Consider `Cc1cccc(CNC(=O)CC#N)c1`, for which the melting point was 110 to 112 °C.
